Test results taken from patent US7994324B2, “2-aminoquinoline derivatives” (Hoffmann-La Roche Inc., priority 2008, dated 2011).

How the values were obtained:
[1] = target: T1, recombinant human 5-HT5A receptor (Homo sapiens, UniProt P47898); experiment: [3H]LSD radioligand binding assay; conditions: [3H]LSD (approximately 1 nM), membranes from HEK-EBNA cells transiently expressing 5-HT5A receptors; Ki from IC50 by Cheng-Prussoff equation
T1 construct: expressed in transfected cells; host or cells: HEK-EBNA (Human Embryonic Kidney-EBNA) cells, transient cDNA expression; membranes used
T1 sequence (P47898 whole entry): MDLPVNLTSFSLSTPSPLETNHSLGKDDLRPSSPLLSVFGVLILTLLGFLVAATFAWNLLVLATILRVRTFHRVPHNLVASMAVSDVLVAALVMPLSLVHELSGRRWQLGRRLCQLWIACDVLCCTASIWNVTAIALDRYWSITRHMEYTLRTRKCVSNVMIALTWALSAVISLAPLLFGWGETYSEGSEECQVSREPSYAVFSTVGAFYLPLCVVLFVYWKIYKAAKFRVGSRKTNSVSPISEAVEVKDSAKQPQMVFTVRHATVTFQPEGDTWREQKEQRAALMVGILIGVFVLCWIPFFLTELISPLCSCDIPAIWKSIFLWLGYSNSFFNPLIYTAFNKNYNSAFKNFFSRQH
Method: A [^3H]LSD radioligand binding assay was used to determine the affinity of the compounds for the recombinant human 5-HT5A receptor, in membranes from transiently (cDNA) expressed 5-HT5A receptors in Human Embryonic Kidney-EBNA (HEK-EBNA) cells. Assay buffer consisted of Tris (50 mM) buffer containing 1 mM EGTA, 10 mM MgCl2 (pH 7.4) and 10 μM pargyline. The binding assay was carried out in 96-well-plates in the presence of [^3H]LSD (approximately 1 nM), approximately 2 μg/well of membrane protein, and 0.5 mg of Ysi-poly-1-lysine SPA beads in a final volume of 200 μl of buffer. Non-specific binding was defined using methiothepin 2 μM. Compounds were tested at 10 concentrations. All assays were conducted in duplicate and repeated at least two times. Assay plates were incubated for 120 min at room temperature before centrifugation. Bound ligand was determined using a Packard Topcount scintillation counter. IC50 values were calculated using a non-linear curve fitting program and Ki values calculated using the Cheng-Prussoff equation.

Structure (SMILES)	Ki [1]	melting point
COc1cccc2c1C(Nc1ccc3c(N)cccc3n1)CC2 (racemic) [Example 19, rac-N^2-(7-Methoxy-indan-1-yl)-quinoline-2,5-diamine]	6.1 nM	–
COc1cccc2c1C(Nc1ccc3c(NS(=O)(=O)N(C)C)cccc3n1)CC2 (racemic) [Example 20, rac-N′-{2-[(7-methoxy-indan-1-yl)amino]quinolin-5-yl}-N,N-dimethylsulfamide]	2.3 nM	–
Nc1cccc2nc(NC3Cc4ccccc4C3)ccc12 (racemic) [Example 23, rac-N^2-Indan-2-yl-quinoline-2,5-diamine]	219 nM	–
COc1cccc2c1C(Nc1ccc3c(NCCSC)cccc3n1)CO2 (racemic) [Example 39, rac-N^2-(4-Methoxy-2,3-dihydro-benzofuran-3-yl)-N^5-(2-methylsulfanyl-ethyl)-quinoline-2,5-diamine]	25.2 nM	–
COc1cccc2c1C(Nc1ccc3c(NCCS(C)(=O)=O)cccc3n1)CO2 (racemic) [Example 40, N^5-(2-Methanesulfonyl-ethyl)-N^2-(RS)-(4-methoxy-2,3-dihydro-benzofuran-3-yl)-quinoline-2,5-diamine]	29.1 nM	188 °C
CNc1cccc2nc(N[C@@H]3CCc4ccccc43)ccc12 [Example 1, N^2-(R)-Indan-1-yl-N^5-methyl-quinoline-2,5-diamine]	22.5 nM	–
c1ccc2c(c1)CC[C@H]2Nc1ccc2c(NC3CCOCC3)cccc2n1 [Example 3, N^2-(R)-Indan-1-yl-N^5-(tetrahydro-pyran-4-yl)-quinoline-2,5-diamine]	26 nM	–
c1ccc2c(c1)CC[C@H]2Nc1ccc2c(N3CCOCC3)cccc2n1 [Example 4, (R)-Indan-1-yl-(5-morpholin-4-yl-quinolin-2-yl)-amine]	105 nM	–
CSCCNc1cccc2nc(N[C@@H]3CCc4ccccc43)ccc12 [Example 5, N^2-(R)-Indan-1-yl-N^5-(2-methylsulfanyl-ethyl)-quinoline-2,5-diamine]	23.5 nM	–
C[S+]([O-])CCNc1cccc2nc(N[C@@H]3CCc4ccccc43)ccc12 (stereo partly drawn) [Example 6, N^2-(R)-Indan-1-yl-N^5-(2-methanesulfinyl-ethyl)-quinoline-2,5-diamine]	26.5 nM	–
CS(=O)(=O)CCNc1cccc2nc(N[C@@H]3CCc4ccccc43)ccc12 [Example 7, N^2-(R)-Indan-1-yl-N^5-(2-methanesulfonyl-ethyl)-quinoline-2,5-diamine]	24.7 nM	–
Nc1cccc2nc(N[C@@H]3CCc4ccccc43)ccc12 [Example 16, (R)—N^2-Indan-1-yl-quinoline-2,5-diamine]	7.2 nM	–
O=S(=O)(Nc1cccc2nc(N[C@@H]3CCc4ccccc43)ccc12)C1CC1 [Example 17, Cyclopropanesulfonic acid[2-((R)-indan-1-ylamino)-quinolin-5-yl]-amide]	32.2 nM	–
O=C(Nc1cccc2nc(N[C@@H]3CCc4ccccc43)ccc12)C1CC1 [Example 22, Cyclopropanecarboxylic acid[2-((R)-indan-1-ylamino)-quinolin-5-yl]-amide]	68 nM	–
COCCOc1cccc2nc(N[C@@H]3CCc4ccccc43)ccc12 [Example 24, (R)-Indan-1-yl-[5-(2-methoxy-ethoxy)-quinolin-2-yl]-amine]	90.6 nM	–
N=C(NO)c1cccc2nc(N[C@@H]3CCc4ccccc43)ccc12 [Example 28, N-Hydroxy-2-((R)-indan-1-ylamino)-quinoline-5-carboxamidine]	17.4 nM	200.5 °C
ON=C(c1cccc2nc(N[C@@H]3CCc4ccccc43)ccc12)C1CC1 [Example 31, Cyclopropyl-[2-((R)-indan-1-ylamino)-quinolin-5-yl]-methanone oxime]	5.8 nM	151 °C
O=C(CN1CCOCC1)Nc1cccc2nc(N[C@@H]3CCc4ccccc43)ccc12 [Example 33, N-[2-((R)-Indan-1-ylamino)-quinolin-5-yl]-2-morpholin-4-yl-acetamide]	–	179 °C
O=C(CC1CCOCC1)Nc1cccc2nc(N[C@@H]3CCc4ccccc43)ccc12 [Example 35, N-[2-((R)-Indan-1-ylamino)-quinolin-5-yl]-2-(tetrahydro-pyran-4-yl)-acetamide]	–	211 °C
c1ccc2c(c1)CC[C@H]2Nc1ccc2c(C3CC3)cccc2n1 [Example 44, (5-Cyclopropyl-quinolin-2-yl)-(R)-indan-1-yl-amine]	27.7 nM	–

Now from value to compound:

Ki [1]	melting point	Structure (SMILES)
12.5 nM	–	Nc1cccc2nc(NC3CCc4cc(F)ccc43)ccc12 (racemic) [Example 37, rac-N^2-[5-Fluoro-indan-1-yl]-quinoline-2,5-diamine]
17.6 nM	187 °C	O=C(Cc1ccc(F)cc1)Nc1cccc2nc(NC3CCc4cc(F)ccc43)ccc12 (racemic) [Example 48, rac-N-[2-(5-Fluoro-indan-1-ylamino)-quinolin-5-yl]-2-(4-fluoro-phenyl)-acetamide]
–	184 °C	O=C(Cc1cccs1)Nc1cccc2nc(NC3CCc4cc(F)ccc43)ccc12 (racemic) [Example 49, rac-N-[2-(5-Fluoro-indan-1-ylamino)-quinolin-5-yl]-2-thiophen-2-yl-acetamide]
–	203 °C	O=C(Cc1cc(F)cc(F)c1)Nc1cccc2nc(NC3CCc4cc(F)ccc43)ccc12 (racemic) [Example 50, rac-2-(3,5-Difluoro-phenyl)-N-[2-(5-fluoro-indan-1-ylamino)-quinolin-5-yl]-acetamide]
9.4 nM	221 °C	O=C(Cc1ccc(Cl)cc1)Nc1cccc2nc(NC3CCc4cc(F)ccc43)ccc12 (racemic) [Example 51, rac-2-(4-Chloro-phenyl)-N-[2-(5-fluoro-indan-1-ylamino)-quinolin-5-yl]-acetamide]
–	192 °C	COc1ccc(CC(=O)Nc2cccc3nc(NC4CCc5cc(F)ccc54)ccc23)cc1 (racemic) [Example 53, rac-N-[2-(5-Fluoro-indan-1-ylamino)-quinolin-5-yl]-2-(4-methoxy-phenyl)-acetamide]
11 nM	195 °C	COc1cccc2c1C(Nc1ccc3c(NC(=O)Cc4ccc(F)cc4)cccc3n1)CC2 (racemic) [Example 54, rac-2-(4-Fluoro-phenyl)-N-[2-(7-methoxy-indan-1-ylamino)-quinolin-5-yl]-acetamide]
–	194 °C	COc1cccc2c1C(Nc1ccc3c(NC(=O)Cc4cccs4)cccc3n1)CC2 (racemic) [Example 55, rac-N-[2-(7-Methoxy-indan-1-ylamino)-quinolin-5-yl]-2-thiophen-2-yl-acetamide]
–	248 °C	COc1cccc2c1C(Nc1ccc3c(NC(=O)Cc4cc(F)cc(F)c4)cccc3n1)CC2 (racemic) [Example 56, rac-2-(3,5-Difluoro-phenyl)-N-[2-(7-methoxy-indan-1-ylamino)-quinolin-5-yl]-acetamide]
9.1 nM	234 °C	COc1cccc2c1C(Nc1ccc3c(NC(=O)Cc4ccc(Cl)cc4)cccc3n1)CC2 (racemic) [Example 57, rac-2-(4-Chloro-phenyl)-N-[2-(7-methoxy-indan-1-ylamino)-quinolin-5-yl]-acetamide]
–	209 °C	COc1ccc(CC(=O)Nc2cccc3nc(NC4CCc5cccc(OC)c54)ccc23)cc1 (racemic) [Example 58, rac-N-[2-(7-Methoxy-indan-1-ylamino)-quinolin-5-yl]-2-(4-methoxy-phenyl)-acetamide]
–	153 °C	CN(C)CC(=O)Nc1cccc2nc(N[C@@H]3CCc4ccccc43)ccc12 [Example 32, 2-Dimethylamino-N-[2-((R)-indan-1-ylamino)-quinolin-5-yl]-acetamide]
11 nM	207 °C	O=C(Cc1ccc(F)cc1)Nc1cccc2nc(N[C@@H]3CCc4ccccc43)ccc12 [Example 45, 2-(4-Fluoro-phenyl)-N-[2-((R)-indan-1-ylamino)-quinolin-5-yl]-acetamide]
36.1 nM	163.5 °C	O=C(Cc1cccs1)Nc1cccc2nc(N[C@@H]3CCc4ccccc43)ccc12 [Example 46, N-[2-((R)-Indan-1-ylamino)-quinolin-5-yl]-2-thiophen-2-yl-acetamide]
–	226 °C	O=C(Cn1ccnc1)Nc1cccc2nc(N[C@@H]3CCc4ccccc43)ccc12 [Example 47, 2-Imidazol-1-yl-N-[2-((R)-indan-1-ylamino)-quinolin-5-yl]-acetamide]
–	175 °C	COc1ccc(CC(=O)Nc2cccc3nc(N[C@@H]4CCc5ccccc54)ccc23)cc1 [Example 52, N-[2-((R)-Indan-1-ylamino)-quinolin-5-yl]-2-(4-methoxy-phenyl)-acetamide]
28.7 nM	221 °C	O=C(Cc1cc(F)cc(F)c1)Nc1cccc2nc(N[C@@H]3CCc4ccccc43)ccc12 [Example 59, 2-(3,5-Difluoro-phenyl)-N-[2-((R)-indan-1-ylamino)-quinolin-5-yl]-acetamide]
5.5 nM	170 °C	O=C(Cc1ccc(Cl)cc1)Nc1cccc2nc(N[C@@H]3CCc4ccccc43)ccc12 [Example 60, 2-(4-Chloro-phenyl)-N-[2-((R)-indan-1-ylamino)-quinolin-5-yl]-acetamide]
